Test results taken from ChEMBL document CHEMBL1144933, “Novel bioactive and stable neurotensin peptide analogues capable of delivering radiopharmaceuticals and molecular beacons to tumors” (J Med Chem, 2003).

Target: Neurotensin receptor type 1 (Homo sapiens, UniProt P30989)
Test: Binding affinity towards neurotensin receptor in membranes prepared from HT-29 cell line, relative to [111In]-labeled neurotensin peptide

Chain of Neurotensin receptor type 1 (P30989 whole entry): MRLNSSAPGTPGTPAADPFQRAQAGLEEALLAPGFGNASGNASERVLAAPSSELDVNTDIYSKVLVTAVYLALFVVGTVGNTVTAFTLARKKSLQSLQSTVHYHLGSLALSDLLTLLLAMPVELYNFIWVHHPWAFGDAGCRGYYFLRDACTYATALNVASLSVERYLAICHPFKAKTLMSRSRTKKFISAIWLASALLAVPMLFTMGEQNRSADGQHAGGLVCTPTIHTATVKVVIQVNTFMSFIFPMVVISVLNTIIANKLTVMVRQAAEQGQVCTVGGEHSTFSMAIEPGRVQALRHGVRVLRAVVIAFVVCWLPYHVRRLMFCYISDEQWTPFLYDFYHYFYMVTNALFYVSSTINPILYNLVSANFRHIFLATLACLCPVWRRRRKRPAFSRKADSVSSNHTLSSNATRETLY

Compound	IC50	IC50 (ht-29)
CC[C@H](C)[C@H](NC(=O)[C@H](Cc1ccc(O)cc1)NC(=O)[C@@H]1CCCN1C(=O)[C@H](Cc1ccc(N=C(N)N)cc1)NC(=O)[C@H](CCCNC(=N)N)NC(=O)[C@@H]1CCCN1C(=O)[C@@H](CCCCN)NC(=O)CN(CCN(CCN(CC(=O)O)CC(=O)O)CC(=O)O)CC(=O)O)C(=O)N[C@@H](CC(C)C)C(=O)O	0.4 nM	
CC(C)(C)[C@H](NC(=O)[C@H](Cc1ccc(O)cc1)NC(=O)[C@@H]1CCCN1C(=O)[C@H](CCCN=C(N)N)NC(=O)[C@@H](NC(=O)[C@@H]1CCCN1C(=O)[C@H](CCCCN)NC(=O)[C@H](CC(N)=O)NC(=O)[C@H](CCC(=O)O)NC(=O)[C@@H](Cc1ccc(O)cc1)NC(=O)CN(CCN(CCN(CC(=O)O)CC(=O)O)CC(=O)O)CC(=O)O)C1CCN(C(=N)N)CC1)C(=O)N[C@@H](CC1CCCCC1)C(=O)O	0.6 nM	
CC[C@H](C)[C@H](NC(=O)[C@H](Cc1ccc(O)cc1)NC(=O)[C@@H]1CCCN1C(=O)[C@H](CCCN=C(N)N)NC(=O)[C@@H](NC(=O)[C@@H]1CCCN1C(=O)[C@@H](CCCCNC(=S)Nc1ccc2c(c1)C(=O)OC21c2ccc(O)cc2Oc2cc(O)ccc21)NC(=S)Nc1ccc2c(c1)C(=O)OC21c2ccc(O)cc2Oc2cc(O)ccc21)C1CCN(C(=N)N)CC1)C(=O)N[C@@H](CC(C)C)C(=O)O		3.4 nM
CC(C)(C)C[C@H](NC(=O)[C@@H](NC(=O)[C@H](Cc1ccc(O)cc1)NC(=O)[C@@H]1CCCN1C(=O)[C@H](CCCNC(=N)N)NC(=O)[C@@H](NC(=O)[C@@H]1CCCN1C(=O)[C@H](CCCCN)NC(=O)[C@H](CC(N)=O)NC(=O)[C@H](CCC(=O)O)NC(=O)[C@@H](Cc1ccc(O)cc1)NC(=O)CN(CCN(CCN(CC(=O)O)CC(=O)O)CC(=O)O)CC(=O)O)C1CCN(C(=N)N)CC1)C(C)(C)C)C(=O)O	0.4 nM	
CC[C@H](C)[C@H](NC(=O)[C@H](Cc1ccc(O)cc1)NC(=O)[C@@H]1CCCN1C(=O)[C@H](CCCN=C(N)N)NC(=O)[C@@H](NC(=O)[C@@H]1CCCN1C(=O)[C@H](N)CCCCNC(=S)Nc1ccc2c(c1)C(=O)OC21c2ccc(O)cc2Oc2cc(O)ccc21)C1CCN(C(=N)N)CC1)C(=O)N[C@@H](CC(C)C)C(=O)O		0.6 nM
CC(C)C[C@H](NC(=O)[C@@H](NC(=O)[C@H](Cc1ccc(O)cc1)NC(=O)[C@@H]1CCCN1C(=O)[C@H](CCCN=C(N)N)NC(=O)[C@@H](NC(=O)[C@@H]1CCCN1C(=O)[C@H](CCCCN)NC(=O)[C@H](CC(N)=O)NC(=O)[C@H](CCC(=O)O)NC(=O)[C@@H](Cc1ccc(O)cc1)NC(=O)CN(CCN(CCN(CC(=O)O)CC(=O)O)CC(=O)O)CC(=O)O)C1CCN(C(=N)N)CC1)C(C)(C)C)C(=O)O	1.5 nM	
CC(C)(C)C[C@H](NC(=O)[C@@H](NC(=O)[C@H](Cc1ccc(O)cc1)NC(=O)[C@@H]1CCCN1C(=O)[C@H](CCCN=C(N)N)NC(=O)[C@@H](NC(=O)[C@@H]1CCCN1C(=O)[C@@H](CCCCN)NC(=O)CN(CCN(CCN(CC(=O)O)CC(=O)O)CC(=O)O)CC(=O)O)C1CCN(C(=N)N)CC1)C(C)(C)C)C(=O)O	21.7 nM	
CC(C)(C)[C@H](NC(=O)[C@H](Cc1ccc(O)cc1)NC(=O)[C@@H]1CCCN1C(=O)[C@H](CCCN=C(N)N)NC(=O)[C@@H](NC(=O)[C@@H]1CCCN1C(=O)[C@@H](CCCCN)NC(=O)CN(CCN(CCN(CC(=O)O)CC(=O)O)CC(=O)O)CC(=O)O)C1CCN(C(=N)N)CC1)C(=O)N[C@@H](CC1CCCCC1)C(=O)O	11.7 nM	
